Consider six compounds from patent publication US11993561B2, “Expectorant compound, preparation method thereof and use thereof” (priority 2019, dated 2024).

Common to all, as to type: in vivo
Series [1] concerns mice. Briefly: Expectorant test in mice using a phenol red method. The settings on record: for Tracheal phenol red excretion: n=10, phenol red i.p. 1 h after dosing, sacrifice 0.5 h later; for Expectorant effect (secretion of phenol red in tracheal segment), result in words: comparison between groups. On the procedure:
In Vivo Pharmacodynamic Test—Expectorant Test in Mice Using a Phenol Red Method
In this example, the in vivo efficacy of the compounds I1, I4, I13 of the present disclosure and known compounds was tested.
Mice in the positive control group were give medicinal ammonium chloride and ambroxol hydrochloride orally, mice in the normal control group were given normal saline of the same amount, and mice the other groups were given corresponding drugs by gavage. The mice were administered by gavage once in the morning and afternoon (excluding ammonium chloride) 2 days before the experiment. After 1 hour of intragastric administration on the morning of the experiment, the mice were intraperitoneally injected with 0.5 ml of phenol red, and the mice were sacrificed 0.5 hours later. The tissue surrounding the organs was peeled off, and a section of the trachea from the thyroid cartilage to the branch of the trachea was cut off and placed in a test tube containing 2 ml of normal saline. The tube was shaken for 30 minutes, the trachea was discarded, and 0.2 ml of sodium hydroxide (1 mol/L) was added to each sample solution. The OD value was measured using a UV-visible spectrophotometer at a wavelength of 546 nm, and the absorbance values were converted into the phenol red content according to the phenol red standard curve.
The data was processed by PEMS medical statistical software.

Series [2] can be described thus: Acute toxicity test in mice administered intravenously. Conditions: male, ICR, mouse, in vivo, iv. On the procedure:
(§1) Acute toxicity test of the compound of the present disclosure to mice administered intravenously
(§2) To test the acute toxicity of compounds of the present disclosure and comparative compounds, the following experiments were performed.
(§3) Compounds of the present disclosure were dissolved in water and administered to 5 ICR mice (mice of 5-week old, male, weighing 20 g±2 g). Intravenous administration was performed to determine the median lethal dose (LD50, mg/kg). Ambroxol hydrochloride was used as a control.

Series [3] deals with ICR mice. The series is described as above. The settings on record: ICR mice, intravenous. The method, then: as §1, §2, §3
The mark [4] stands for this setting: gavage, dose 2.0 ml/kg (high dose).
The mark [5] stands for this setting: gavage, dose 0.5 ml/kg (low dose).

By LD50 is commonly meant the dose at which mortality reaches 50%.

Where a name gives a salt, the structure may show the parent alone.

`CC(=O)N[C@@H](CS)C(=O)O` [Acetylcysteine, acetylcysteine, reference compound]: the “Tracheal phenol red excretion” value in series [1] (setting [4]) is given as 1.532 ± 0.247 ΔΔ** mg/L.
Regarding `Nc1c(Br)cc(Br)cc1CN[C@H]1CC[C@H](O)CC1` [Ambroxol, ambroxol hydrochloride, reference compound], in series [1], the “Expectorant effect (secretion of phenol red in tracheal segment), result in words” value (shortened to “Expectorant effect … in words”) was “best effect”. The “Tracheal phenol red excretion” value in series [1] (setting [4]) is on record as 1.418 ± 0.352 ΔΔ** mg/L. In series [2], this compound had an LD50 of 268 mg/kg.
For `Cl.N` [Ammonium chloride, ammonium chloride, reference compound], in series [1] (oral, dose 1.0 ml/kg), the “Tracheal phenol red excretion” value is 0.875 ± 0.208 ΔΔ** mg/L.
With `Cl.Nc1c(Br)cc(Br)cc1CN[C@H]1CC[C@H](S)CC1` [I1, trans-4-[(2-amino-3,5-dibromo-benzyl)amino]-cyclohexanethiol hydrochloride], the “Expectorant effect … in words” value in series [1] is recorded as “best effect”. Besides, the figures for the “Tracheal phenol red excretion” value in series [1] (setting [5]) and in series [1] (setting [4]) were 1.225 ± 0.337 ΔΔ** mg/L and 1.610 ± 0.284 ΔΔ** mg/L, respectively. In addition, in series [2], the LD50 was found to be 453 mg/kg. The “LD50 compared with ambroxol hydrochloride, in words” value in series [3] is reported as “much higher”.
Consider `CN(Cc1cc(Br)cc(Br)c1N)[C@H]1CC[C@H](S)CC1.Cl` [I4, trans-4-[(2-amino-3,5-dibromo-benzyl)-methyl-amino]-cyclohexanethiol hydrochloride], for which the figures for the “Tracheal phenol red excretion” value in series [1] (setting [5]) and in series [1] (setting [4]) were 1.083 ± 0.312 ΔΔ** mg/L and 1.273 ± 0.275 ΔΔ** mg/L, respectively. This compound also came in with an LD50 in series [2] of 523 mg/kg. For the same compound, the “LD50 compared with ambroxol hydrochloride, in words” value in series [3] was “much higher”.
For `Nc1c(Br)cc(Br)cc1CN[C@H]1CC[C@H](SCCCO)CC1` [I13, trans 3-[4-(2-amino-3,5-dibromo-benzylamino)-cyclohexylsulfanyl]-propan-1-ol], the “Dose-effect relationship of expectorant effect” value in series [1] (0.5 vs 2.0 ml/kg) is listed as “relatively obvious dose-effect relationship”. The “Expectorant effect … in words” value in series [1] was “strongest effect”. The “Tracheal phenol red excretion” value in series [1] (setting [5]) was 1.452 ± 0.351 ΔΔ** mg/L; in series [1] (setting [4]), 1.826 ± 0.334 ΔΔ** mg/L. The compound further returned an LD50 in series [2] of 507 mg/kg. For the same compound, the “LD50 compared with ambroxol hydrochloride, in words” value in series [3] is reported as “much higher”.
